Laboratory results taken from ChEMBL document CHEMBL5291721, “A preclinical secondary pharmacology resource illuminates target-adverse drug reaction associations of marketed drugs” (Nat Commun, 2023).

Legend:
[1] = molecular target: T1, Adenosine receptor A3 (Homo sapiens, UniProt P0DMS8)
T1 sequence (P0DMS8 whole entry): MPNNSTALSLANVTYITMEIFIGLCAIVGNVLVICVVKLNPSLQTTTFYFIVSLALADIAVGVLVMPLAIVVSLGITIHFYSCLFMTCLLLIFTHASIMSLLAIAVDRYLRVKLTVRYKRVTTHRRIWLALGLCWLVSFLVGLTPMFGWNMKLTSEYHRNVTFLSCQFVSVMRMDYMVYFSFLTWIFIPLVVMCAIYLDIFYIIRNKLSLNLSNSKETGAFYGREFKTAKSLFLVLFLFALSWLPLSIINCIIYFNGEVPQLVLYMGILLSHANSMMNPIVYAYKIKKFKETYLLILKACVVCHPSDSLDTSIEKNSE

[2] = molecular target: T2, Alpha-2A adrenergic receptor (Homo sapiens, UniProt P08913)
T2 sequence (P08913 whole entry): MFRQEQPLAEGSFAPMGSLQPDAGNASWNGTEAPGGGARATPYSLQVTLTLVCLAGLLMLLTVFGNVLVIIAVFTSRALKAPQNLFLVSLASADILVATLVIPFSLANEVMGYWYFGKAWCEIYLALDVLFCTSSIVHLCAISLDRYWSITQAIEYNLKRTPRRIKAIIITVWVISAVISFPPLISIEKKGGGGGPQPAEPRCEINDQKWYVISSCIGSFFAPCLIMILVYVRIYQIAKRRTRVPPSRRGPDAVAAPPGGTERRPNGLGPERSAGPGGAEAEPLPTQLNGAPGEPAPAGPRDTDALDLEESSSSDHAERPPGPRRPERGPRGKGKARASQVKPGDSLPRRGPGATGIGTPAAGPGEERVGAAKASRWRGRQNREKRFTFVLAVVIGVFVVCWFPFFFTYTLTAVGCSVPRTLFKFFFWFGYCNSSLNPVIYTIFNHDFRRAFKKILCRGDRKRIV

[3] = molecular target: T3, Muscarinic acetylcholine receptor M2 (Homo sapiens, UniProt P08172)
T3 sequence (P08172 whole entry): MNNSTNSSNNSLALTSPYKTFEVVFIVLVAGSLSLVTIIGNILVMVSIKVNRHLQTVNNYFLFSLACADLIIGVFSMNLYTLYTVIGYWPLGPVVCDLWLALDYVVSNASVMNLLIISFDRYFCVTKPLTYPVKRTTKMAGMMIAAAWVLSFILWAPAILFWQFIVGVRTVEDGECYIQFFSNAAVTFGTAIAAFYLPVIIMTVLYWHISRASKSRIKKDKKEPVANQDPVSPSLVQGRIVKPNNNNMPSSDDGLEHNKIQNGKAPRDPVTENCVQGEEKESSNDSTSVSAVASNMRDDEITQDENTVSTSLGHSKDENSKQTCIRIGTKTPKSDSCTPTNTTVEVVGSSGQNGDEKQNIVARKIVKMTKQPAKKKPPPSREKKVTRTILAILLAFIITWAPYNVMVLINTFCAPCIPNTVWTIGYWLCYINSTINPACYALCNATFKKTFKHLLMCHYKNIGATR

[4] = molecular target: Prothrombin (Homo sapiens, UniProt P00734); type: functional
[5] = molecular target: Histamine H3 receptor (Homo sapiens, UniProt Q9Y5N1)
Sequence of Histamine H3 receptor (Q9Y5N1 whole entry): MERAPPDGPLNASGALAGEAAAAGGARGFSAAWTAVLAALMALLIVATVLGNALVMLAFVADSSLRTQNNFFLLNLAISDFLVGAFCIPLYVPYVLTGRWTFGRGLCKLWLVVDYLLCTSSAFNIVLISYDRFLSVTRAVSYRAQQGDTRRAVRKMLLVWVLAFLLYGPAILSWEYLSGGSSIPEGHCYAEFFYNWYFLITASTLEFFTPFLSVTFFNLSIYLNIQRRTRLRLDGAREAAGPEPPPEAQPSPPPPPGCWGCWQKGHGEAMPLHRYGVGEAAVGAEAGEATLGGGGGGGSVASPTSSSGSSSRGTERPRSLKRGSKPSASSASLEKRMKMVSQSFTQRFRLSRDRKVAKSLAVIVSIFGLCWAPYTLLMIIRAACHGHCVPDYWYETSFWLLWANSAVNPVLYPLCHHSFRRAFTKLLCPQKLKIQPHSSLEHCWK

[6] = molecular target: T4, 5-hydroxytryptamine receptor 1A (Homo sapiens, UniProt P08908)
T4 sequence (P08908 whole entry): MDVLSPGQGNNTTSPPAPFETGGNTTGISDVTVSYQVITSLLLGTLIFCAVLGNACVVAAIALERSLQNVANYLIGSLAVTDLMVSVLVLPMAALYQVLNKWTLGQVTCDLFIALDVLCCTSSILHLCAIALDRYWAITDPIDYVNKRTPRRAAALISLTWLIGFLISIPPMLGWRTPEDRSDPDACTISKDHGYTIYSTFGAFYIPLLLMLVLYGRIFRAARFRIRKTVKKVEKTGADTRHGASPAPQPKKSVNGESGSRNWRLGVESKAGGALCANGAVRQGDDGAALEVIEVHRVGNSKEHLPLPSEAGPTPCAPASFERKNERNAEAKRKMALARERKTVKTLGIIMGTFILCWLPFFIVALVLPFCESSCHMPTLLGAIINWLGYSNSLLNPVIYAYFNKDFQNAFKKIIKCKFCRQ

[7] = molecular target: 5-hydroxytryptamine receptor 2B (Homo sapiens, UniProt P41595); type: functional, cell-based
Sequence of 5-hydroxytryptamine receptor 2B (P41595 whole entry): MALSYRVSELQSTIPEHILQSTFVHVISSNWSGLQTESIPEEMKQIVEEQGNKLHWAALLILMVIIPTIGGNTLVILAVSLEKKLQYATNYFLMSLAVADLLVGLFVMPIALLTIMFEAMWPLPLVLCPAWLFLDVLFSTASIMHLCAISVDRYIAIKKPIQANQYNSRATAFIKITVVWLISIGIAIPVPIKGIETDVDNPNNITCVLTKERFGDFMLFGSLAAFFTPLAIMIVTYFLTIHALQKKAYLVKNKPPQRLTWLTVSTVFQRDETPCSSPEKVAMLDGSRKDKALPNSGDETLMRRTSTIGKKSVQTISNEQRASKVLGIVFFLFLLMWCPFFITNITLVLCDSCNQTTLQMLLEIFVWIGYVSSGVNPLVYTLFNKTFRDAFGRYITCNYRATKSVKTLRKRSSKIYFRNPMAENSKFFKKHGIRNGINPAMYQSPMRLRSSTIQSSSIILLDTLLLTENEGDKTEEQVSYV

[8] = molecular target: cGMP-inhibited 3',5'-cyclic phosphodiesterase 3A (Homo sapiens, UniProt Q14432); type: functional
Sequence of cGMP-inhibited 3',5'-cyclic phosphodiesterase 3A (Q14432 whole entry): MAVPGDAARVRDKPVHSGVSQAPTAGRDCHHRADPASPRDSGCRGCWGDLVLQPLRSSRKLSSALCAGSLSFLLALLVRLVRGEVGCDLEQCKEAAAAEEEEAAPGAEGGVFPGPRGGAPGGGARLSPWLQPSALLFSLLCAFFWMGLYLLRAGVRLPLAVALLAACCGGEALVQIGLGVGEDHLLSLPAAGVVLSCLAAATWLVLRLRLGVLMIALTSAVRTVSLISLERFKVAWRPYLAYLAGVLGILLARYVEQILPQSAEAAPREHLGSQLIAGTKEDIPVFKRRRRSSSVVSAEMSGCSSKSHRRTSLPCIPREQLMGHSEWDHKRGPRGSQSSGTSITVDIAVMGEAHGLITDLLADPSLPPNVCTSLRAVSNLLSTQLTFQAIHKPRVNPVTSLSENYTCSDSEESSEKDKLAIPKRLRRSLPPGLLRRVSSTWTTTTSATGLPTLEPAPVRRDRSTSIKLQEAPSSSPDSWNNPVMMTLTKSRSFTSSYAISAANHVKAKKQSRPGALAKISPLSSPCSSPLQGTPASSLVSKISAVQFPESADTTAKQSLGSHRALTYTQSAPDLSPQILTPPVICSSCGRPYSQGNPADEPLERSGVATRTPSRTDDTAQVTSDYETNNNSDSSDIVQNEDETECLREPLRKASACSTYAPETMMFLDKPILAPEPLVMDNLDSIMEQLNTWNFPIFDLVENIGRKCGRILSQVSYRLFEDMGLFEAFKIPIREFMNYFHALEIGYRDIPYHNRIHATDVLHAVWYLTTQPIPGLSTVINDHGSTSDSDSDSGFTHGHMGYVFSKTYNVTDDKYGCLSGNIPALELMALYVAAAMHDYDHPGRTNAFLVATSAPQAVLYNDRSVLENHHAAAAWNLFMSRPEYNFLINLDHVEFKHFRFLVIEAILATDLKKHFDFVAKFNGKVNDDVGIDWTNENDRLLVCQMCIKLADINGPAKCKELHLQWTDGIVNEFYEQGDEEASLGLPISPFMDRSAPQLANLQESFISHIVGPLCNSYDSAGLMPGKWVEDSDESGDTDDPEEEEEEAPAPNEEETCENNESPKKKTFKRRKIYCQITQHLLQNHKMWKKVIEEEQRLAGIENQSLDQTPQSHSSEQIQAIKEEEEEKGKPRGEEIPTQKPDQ

[9] = molecular target: 3',5'-cyclic-AMP phosphodiesterase 4A (Homo sapiens, UniProt P27815); type: functional
Sequence of 3',5'-cyclic-AMP phosphodiesterase 4A (P27815 whole entry): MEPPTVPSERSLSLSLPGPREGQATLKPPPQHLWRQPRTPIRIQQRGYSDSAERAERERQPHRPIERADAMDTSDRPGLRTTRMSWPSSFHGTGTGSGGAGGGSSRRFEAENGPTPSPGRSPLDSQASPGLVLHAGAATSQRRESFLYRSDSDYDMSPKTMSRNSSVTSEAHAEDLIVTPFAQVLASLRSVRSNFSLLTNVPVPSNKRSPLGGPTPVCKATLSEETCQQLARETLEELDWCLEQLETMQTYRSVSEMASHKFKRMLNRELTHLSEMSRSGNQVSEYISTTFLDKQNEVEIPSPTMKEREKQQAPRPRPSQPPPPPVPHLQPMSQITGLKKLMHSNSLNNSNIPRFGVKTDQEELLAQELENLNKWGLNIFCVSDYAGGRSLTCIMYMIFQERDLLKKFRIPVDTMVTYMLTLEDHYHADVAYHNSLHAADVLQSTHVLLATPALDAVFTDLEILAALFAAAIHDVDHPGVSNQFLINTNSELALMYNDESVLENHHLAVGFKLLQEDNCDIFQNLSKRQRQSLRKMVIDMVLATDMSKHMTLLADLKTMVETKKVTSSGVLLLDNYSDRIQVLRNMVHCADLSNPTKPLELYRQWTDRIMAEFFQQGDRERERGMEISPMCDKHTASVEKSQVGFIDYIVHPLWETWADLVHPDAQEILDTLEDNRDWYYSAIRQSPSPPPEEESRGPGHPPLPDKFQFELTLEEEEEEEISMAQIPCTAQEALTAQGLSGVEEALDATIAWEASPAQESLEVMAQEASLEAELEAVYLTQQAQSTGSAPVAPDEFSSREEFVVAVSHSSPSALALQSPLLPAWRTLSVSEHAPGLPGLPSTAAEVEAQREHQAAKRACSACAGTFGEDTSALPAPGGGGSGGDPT

[10] = molecular target: T5, Progesterone receptor (Homo sapiens, UniProt P06401)
T5 sequence (P06401 whole entry): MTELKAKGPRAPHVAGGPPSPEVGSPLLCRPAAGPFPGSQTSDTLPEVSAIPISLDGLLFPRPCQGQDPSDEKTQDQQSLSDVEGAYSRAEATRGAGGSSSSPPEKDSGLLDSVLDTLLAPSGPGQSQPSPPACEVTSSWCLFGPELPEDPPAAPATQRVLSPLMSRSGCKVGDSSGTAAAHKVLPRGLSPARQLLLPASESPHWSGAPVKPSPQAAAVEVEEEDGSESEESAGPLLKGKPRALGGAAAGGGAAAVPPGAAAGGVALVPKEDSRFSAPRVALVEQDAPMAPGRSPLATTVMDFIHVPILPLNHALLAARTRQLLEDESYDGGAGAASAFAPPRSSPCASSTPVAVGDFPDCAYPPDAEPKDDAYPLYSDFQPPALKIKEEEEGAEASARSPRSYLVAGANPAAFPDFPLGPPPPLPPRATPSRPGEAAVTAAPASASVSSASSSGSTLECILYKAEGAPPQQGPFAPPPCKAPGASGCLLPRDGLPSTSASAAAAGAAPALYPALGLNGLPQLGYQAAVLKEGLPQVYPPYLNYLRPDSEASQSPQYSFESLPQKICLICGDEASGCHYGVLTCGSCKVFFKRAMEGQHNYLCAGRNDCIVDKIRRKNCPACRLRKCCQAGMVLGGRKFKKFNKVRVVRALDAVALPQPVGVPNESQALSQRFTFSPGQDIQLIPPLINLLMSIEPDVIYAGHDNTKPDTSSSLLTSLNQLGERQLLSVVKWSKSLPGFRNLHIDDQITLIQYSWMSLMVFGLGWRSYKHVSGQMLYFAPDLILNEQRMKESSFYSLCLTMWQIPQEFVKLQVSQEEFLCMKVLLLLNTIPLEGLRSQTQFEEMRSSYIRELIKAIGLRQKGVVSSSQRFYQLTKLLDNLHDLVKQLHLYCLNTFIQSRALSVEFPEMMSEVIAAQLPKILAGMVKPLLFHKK

[11] = molecular target: Prostaglandin G/H synthase 1 (Homo sapiens, UniProt P23219); type: functional
Sequence of Prostaglandin G/H synthase 1 (P23219 whole entry): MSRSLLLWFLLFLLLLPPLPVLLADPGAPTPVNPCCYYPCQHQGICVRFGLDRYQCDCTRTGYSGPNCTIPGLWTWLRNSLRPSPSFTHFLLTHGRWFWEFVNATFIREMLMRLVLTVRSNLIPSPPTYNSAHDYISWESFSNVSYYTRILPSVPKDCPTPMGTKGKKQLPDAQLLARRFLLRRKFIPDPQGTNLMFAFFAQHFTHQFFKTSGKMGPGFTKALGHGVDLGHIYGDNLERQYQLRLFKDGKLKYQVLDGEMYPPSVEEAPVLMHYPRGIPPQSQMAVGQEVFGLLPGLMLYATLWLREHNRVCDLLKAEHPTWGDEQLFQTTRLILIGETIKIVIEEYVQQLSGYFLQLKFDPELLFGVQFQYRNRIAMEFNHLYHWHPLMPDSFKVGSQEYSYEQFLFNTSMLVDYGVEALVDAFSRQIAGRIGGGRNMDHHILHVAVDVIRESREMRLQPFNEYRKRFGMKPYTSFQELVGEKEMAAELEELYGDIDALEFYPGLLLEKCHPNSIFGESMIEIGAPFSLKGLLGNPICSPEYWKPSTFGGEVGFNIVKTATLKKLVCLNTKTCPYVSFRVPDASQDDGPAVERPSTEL
Further: assay procedure not described here.

SMILES	AC50 [1] [µM]	AC50 [2] [µM]	AC50 [3] [µM]	AC50 [4] [µM]	AC50 [5] [µM]	AC50 [6] [µM]	AC50 [7] [µM]	AC50 [8] [µM]	AC50 [9] [µM]	AC50 [10] [µM]	AC50 [11] [µM]
CC(C(=O)O)c1ccc2c(c1)Cc1cccnc1O2 (configuration not stated) [PRANOPROFEN]	> 30	> 30	> 30	> 30	> 30	> 30	> 30	> 30	> 30	> 30	0.702
O=C(O)CCCN1CCC(O[C@@H](c2ccc(Cl)cc2)c2ccccn2)CC1 [BEPOTASTINE]	> 30	> 30	> 30	> 30	> 30	> 30	> 30	> 30	> 30	> 30	> 30
O=C(NC1CCN(CCCCC2(C(=O)NCC(F)(F)F)c3ccccc3-c3ccccc32)CC1)c1ccccc1-c1ccc(C(F)(F)F)cc1 [LOMITAPIDE]	4.4	13.2	22.6	> 30	> 30	> 30	> 30	> 30	> 30	> 30	> 30
CCOc1ccc(/C=C2\NCCc3cc(OCC)c(OCC)cc32)cc1OCC [DROTAVERINE]	26.4	5.83	28.4	> 30	> 30	> 30	> 30	> 30	1.68	> 30	> 10
C[C@@H]1C[C@H]2[C@@H]3C[C@H](F)C4=CC(=O)C(Cl)=C[C@]4(C)[C@@]3(F)[C@@H](O)C[C@]2(C)[C@@]1(O)C(=O)CO [HALOMETASONE]	> 30	> 30	> 30	> 30	> 30	> 30	> 30	> 30	> 30	7.72	> 30
Nc1ccc(C(=O)O)cc1 [AMINOBENZOIC ACID]	> 30	> 30	> 30	> 30	> 30	> 30	> 30	> 30	> 30	> 30	2.18
O=C(Nc1ccccc1)OCC(CN1CCCCC1)OC(=O)Nc1ccccc1 (configuration not stated) [DIPERODON]	> 30	> 30	> 30	> 30	> 30	> 30	> 30	> 30	> 30	> 30	> 30
